Data from EP4722207A1, “OXOISOINDOLINYL-SUBSTITUTED TETRAHYDROPYRIMIDINEDIONE DERIVATIVE AND USE THEREOF” (Gluetacs Therapeutics (Shanghai) Co., Ltd., priority 2023, dated 2024).

Tests used:
WEE1 = biological target: T1, WEE1 (Homo sapiens, UniProt P30291+Q96SW2); test: Western-blot assay, substrate protein degradation in hPBMCs: WEE1; assay type: cell-based; details: compounds at 50 nM and 500 nM, 24 hours
T1 construct: effects of the compounds of the present disclosure on the expression of target proteins in cells; endogenous in cells; host or cells: human PBMCs (hPBMCs)

IKZF1 = biological target: T2, IKZF1 (Homo sapiens, UniProt Q13422+Q96SW2); test: Western-blot assay, substrate protein degradation in hPBMCs: IKZF1; assay type: cell-based; details: compounds at 50 nM and 500 nM, 24 hours
T2 construct: effects of the compounds of the present disclosure on the expression of target proteins in cells; endogenous in cells; host or cells: human PBMCs (hPBMCs)
T2 sequence (Q13422 whole entry): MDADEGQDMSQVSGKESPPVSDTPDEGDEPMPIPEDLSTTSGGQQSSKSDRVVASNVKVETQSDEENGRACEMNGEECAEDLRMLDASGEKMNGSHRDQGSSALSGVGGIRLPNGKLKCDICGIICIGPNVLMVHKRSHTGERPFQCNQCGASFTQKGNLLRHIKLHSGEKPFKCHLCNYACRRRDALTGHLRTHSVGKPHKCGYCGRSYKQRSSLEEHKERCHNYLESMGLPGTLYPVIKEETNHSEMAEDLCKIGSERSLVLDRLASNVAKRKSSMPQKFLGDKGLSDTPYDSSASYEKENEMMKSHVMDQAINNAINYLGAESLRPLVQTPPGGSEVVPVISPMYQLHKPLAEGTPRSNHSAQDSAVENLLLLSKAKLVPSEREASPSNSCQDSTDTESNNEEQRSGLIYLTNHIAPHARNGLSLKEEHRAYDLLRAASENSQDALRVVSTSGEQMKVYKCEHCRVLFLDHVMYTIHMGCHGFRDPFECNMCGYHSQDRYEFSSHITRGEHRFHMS
T2 sequence (Q96SW2 whole entry): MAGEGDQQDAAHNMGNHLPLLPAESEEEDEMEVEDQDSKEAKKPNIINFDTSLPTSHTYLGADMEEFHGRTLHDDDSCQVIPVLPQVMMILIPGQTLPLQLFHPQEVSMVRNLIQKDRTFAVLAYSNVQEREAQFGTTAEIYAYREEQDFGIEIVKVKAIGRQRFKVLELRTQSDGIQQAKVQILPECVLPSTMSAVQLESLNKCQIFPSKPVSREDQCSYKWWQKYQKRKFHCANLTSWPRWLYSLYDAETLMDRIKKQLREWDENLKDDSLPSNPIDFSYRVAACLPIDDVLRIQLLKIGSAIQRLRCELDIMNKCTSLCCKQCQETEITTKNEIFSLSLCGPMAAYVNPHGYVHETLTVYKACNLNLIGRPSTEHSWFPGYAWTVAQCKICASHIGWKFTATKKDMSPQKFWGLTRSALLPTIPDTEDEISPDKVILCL
T2 sequence (Q16531 whole entry partner): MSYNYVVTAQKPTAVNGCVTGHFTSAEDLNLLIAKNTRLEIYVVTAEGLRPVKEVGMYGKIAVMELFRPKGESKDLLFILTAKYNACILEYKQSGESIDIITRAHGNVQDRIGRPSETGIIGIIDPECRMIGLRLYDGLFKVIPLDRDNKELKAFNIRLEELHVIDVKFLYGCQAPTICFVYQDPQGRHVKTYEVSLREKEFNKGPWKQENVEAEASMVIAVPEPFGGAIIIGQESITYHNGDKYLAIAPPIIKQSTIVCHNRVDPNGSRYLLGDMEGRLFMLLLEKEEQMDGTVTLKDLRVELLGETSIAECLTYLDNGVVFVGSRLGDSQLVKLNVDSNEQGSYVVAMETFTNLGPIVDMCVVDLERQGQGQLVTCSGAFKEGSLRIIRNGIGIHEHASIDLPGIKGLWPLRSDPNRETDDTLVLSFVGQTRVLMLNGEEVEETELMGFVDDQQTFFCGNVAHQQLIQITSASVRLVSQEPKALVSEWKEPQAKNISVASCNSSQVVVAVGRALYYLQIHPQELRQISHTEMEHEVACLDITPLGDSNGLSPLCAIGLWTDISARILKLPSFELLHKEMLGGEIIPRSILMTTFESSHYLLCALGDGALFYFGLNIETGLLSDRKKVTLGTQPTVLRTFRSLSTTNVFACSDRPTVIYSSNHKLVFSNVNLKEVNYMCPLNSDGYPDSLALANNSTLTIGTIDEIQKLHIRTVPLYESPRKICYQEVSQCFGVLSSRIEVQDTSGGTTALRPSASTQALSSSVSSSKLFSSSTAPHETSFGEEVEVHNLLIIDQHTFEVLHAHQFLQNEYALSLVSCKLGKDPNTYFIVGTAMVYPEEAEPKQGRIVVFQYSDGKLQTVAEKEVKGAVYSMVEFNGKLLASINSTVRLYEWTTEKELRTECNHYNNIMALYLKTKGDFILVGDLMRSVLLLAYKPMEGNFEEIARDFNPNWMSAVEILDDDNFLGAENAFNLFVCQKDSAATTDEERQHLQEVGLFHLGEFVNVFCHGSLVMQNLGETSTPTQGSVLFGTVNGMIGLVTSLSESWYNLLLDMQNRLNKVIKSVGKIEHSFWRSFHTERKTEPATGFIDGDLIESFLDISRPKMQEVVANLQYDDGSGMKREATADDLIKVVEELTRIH

IKZF2 = biological target: T3, IKZF2 (Homo sapiens, UniProt Q96SW2+Q9UKS7); test: Western-blot assay, substrate protein degradation in hPBMCs: IKZF2; assay type: cell-based; details: compounds at 50 nM and 500 nM, 24 hours
T3 construct: effects of the compounds of the present disclosure on the expression of target proteins in cells; endogenous in cells; host or cells: human PBMCs (hPBMCs)
T3 sequence (Q9UKS7 whole entry): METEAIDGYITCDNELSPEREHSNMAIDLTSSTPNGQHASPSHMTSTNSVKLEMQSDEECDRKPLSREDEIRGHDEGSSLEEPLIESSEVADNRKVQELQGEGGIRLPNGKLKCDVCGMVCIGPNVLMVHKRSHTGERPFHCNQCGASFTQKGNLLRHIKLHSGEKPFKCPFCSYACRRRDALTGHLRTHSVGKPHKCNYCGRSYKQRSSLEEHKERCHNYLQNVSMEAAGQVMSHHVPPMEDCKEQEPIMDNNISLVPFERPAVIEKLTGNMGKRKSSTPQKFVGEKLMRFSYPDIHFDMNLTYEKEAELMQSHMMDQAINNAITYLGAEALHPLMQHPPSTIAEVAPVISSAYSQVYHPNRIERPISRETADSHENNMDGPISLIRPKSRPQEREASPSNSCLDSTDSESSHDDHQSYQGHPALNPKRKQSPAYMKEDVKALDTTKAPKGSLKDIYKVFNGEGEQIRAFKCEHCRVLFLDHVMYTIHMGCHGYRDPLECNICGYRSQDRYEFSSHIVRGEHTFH
T3 sequence (Q96SW2 whole entry): as the sequence (Q96SW2 whole entry) above
T3 sequence (Q16531 whole entry partner): as the sequence (Q16531 whole entry partner) above

IKZF3 = biological target: T4, IKZF3 (Homo sapiens, UniProt Q96SW2+Q9UKT9); test: Western-blot assay, substrate protein degradation in hPBMCs: IKZF3; assay type: cell-based; details: compounds at 50 nM and 500 nM, 24 hours
T4 construct: effects of the compounds of the present disclosure on the expression of target proteins in cells; endogenous in cells; host or cells: human PBMCs (hPBMCs)
T4 sequence (Q9UKT9 whole entry): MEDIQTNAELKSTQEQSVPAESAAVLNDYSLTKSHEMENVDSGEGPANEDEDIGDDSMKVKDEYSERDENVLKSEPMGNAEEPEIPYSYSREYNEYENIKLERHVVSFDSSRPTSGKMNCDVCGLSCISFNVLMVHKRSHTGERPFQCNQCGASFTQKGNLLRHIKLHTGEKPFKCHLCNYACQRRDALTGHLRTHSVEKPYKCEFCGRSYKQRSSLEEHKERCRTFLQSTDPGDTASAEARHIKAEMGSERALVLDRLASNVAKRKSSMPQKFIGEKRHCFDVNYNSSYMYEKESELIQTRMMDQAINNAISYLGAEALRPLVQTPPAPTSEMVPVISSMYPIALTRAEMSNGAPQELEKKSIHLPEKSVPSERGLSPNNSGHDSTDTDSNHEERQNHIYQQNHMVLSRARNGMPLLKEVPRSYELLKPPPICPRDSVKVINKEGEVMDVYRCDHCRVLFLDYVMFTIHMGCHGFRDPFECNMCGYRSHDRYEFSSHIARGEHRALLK
T4 sequence (Q96SW2 whole entry): as the sequence (Q96SW2 whole entry) above
T4 sequence (Q16531 whole entry partner): as the sequence (Q16531 whole entry partner) above

CK1α = biological target: T5, CK1α (Homo sapiens, UniProt P48729+Q96SW2); test: Western-blot assay, substrate protein degradation in hPBMCs: CK1α; assay type: cell-based; details: compounds at 50 nM and 500 nM, 24 hours
T5 construct: effects of the compounds of the present disclosure on the expression of target proteins in cells; endogenous in cells; host or cells: human PBMCs (hPBMCs)
T5 sequence (P48729 whole entry): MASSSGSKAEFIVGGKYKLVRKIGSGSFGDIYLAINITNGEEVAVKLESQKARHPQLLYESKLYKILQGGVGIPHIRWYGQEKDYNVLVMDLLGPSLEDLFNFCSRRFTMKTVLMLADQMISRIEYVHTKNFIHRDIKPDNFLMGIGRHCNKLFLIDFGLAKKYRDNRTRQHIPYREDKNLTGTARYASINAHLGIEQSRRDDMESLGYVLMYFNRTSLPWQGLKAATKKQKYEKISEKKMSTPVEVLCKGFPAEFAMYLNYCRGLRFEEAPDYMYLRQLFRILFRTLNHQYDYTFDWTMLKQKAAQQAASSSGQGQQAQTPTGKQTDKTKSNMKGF
T5 sequence (Q96SW2 whole entry): as the sequence (Q96SW2 whole entry) above
T5 sequence (Q16531 whole entry partner): as the sequence (Q16531 whole entry partner) above

GSPT1 = biological target: T6, GSPT1 (Homo sapiens, UniProt P15170+Q96SW2); test: Western-blot assay, substrate protein degradation in hPBMCs: GSPT1; assay type: cell-based; details: compounds at 50 nM and 500 nM, 24 hours
T6 construct: effects of the compounds of the present disclosure on the expression of target proteins in cells; endogenous in cells; host or cells: human PBMCs (hPBMCs)
T6 sequence (P15170 whole entry): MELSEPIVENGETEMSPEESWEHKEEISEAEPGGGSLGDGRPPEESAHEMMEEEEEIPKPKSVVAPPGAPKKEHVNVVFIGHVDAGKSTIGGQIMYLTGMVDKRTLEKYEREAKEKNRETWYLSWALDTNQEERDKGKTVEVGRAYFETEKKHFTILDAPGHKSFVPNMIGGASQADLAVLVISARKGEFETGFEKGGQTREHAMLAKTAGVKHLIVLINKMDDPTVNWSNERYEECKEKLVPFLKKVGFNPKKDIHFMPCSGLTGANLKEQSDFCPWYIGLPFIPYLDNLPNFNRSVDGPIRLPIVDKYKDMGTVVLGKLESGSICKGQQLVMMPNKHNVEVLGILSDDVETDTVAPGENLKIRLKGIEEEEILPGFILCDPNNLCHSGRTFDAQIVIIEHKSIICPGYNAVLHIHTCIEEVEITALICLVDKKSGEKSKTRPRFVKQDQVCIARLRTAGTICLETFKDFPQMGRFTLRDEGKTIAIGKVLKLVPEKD
T6 sequence (Q96SW2 whole entry): as the sequence (Q96SW2 whole entry) above
T6 sequence (Q16531 whole entry partner): as the sequence (Q16531 whole entry partner) above

MM.1S = test: Cell viability assay (CellTiter-Meiluncell Luminescent), tumor cell proliferation, MM.1S; details: Homo sapiens, MM1.S, 96 h, read-out: inhibitory activity (IC50, nM) against tumor cells proliferation, MM.1S
MGC803 = test: Cell viability assay (CellTiter-Meiluncell Luminescent), tumor cell proliferation, MGC803; details: Homo sapiens, MGC-803, 96 h, read-out: inhibitory activity (IC50, nM) against tumor cells proliferation, MGC803
Protocol: (§1) On the following day, the test compounds of the present disclosure were subjected to serial dilution. […] Subsequently, 0.5 µL of the test compound dilution was transferred into the 96-well plate containing the cells, with each well containing 100 µL of cell culture medium. […] Into the 96-well plate, the diluted test compounds and corresponding detection reagents were added, resulting in final test compound concentrations of 500 nM and 10 nM, respectively.
(§2) After the cells were treated with the compounds of the present disclosure for a specified period, the cell viability assay reagent was added to the culture medium according to the kit's instructions to determine cell viability. […] All controls were treated using the same procedure as the compounds of the present disclosure. The growth inhibition curves for the compounds of the present disclosure were plotted using Prism GraphPad software, and the IC50 values were calculated therefrom.

Jurkat = test: Cell viability assay (CellTiter-Meiluncell Luminescent), tumor cell proliferation, Jurkat; details: Homo sapiens, 96 h, read-out: inhibitory activity (IC50, nM) against tumor cells proliferation, Jurkat
Protocol: as §1, §2

Question: Which results are given for `Cc1cscc1C1=CCN(Cc2ccc3c(c2)CN(N2CCC(=O)NC2=O)C3=O)CC1` [GT-04872, 1-(5-((4-(4-methylthiophen-3-yl)-3,6-dihydropyridin-1(2H)-yl)methyl)-1-oxoisoindolin-2-yl)dihydropyrimidine-2,4(1H,3H)-dione]?
Answer: WEE1 substrate protein remaining % (WEE1): A ("A" is defined as 0% ≤ substrate protein remaining % ≤ 80%); IKZF1 substrate protein remaining % (IKZF1): A ("A" is defined as 0% ≤ substrate protein remaining % ≤ 80%); IKZF2 substrate protein remaining % (IKZF2): B ("B" is defined as 80%< substrate protein remaining %≤ 100%); IKZF3 substrate protein remaining % (IKZF3): B ("B" is defined as 80%< substrate protein remaining %≤ 100%); CK1α substrate protein remaining % (CK1α): B ("B" is defined as 80%< substrate protein remaining %≤ 100%); GSPT1 substrate protein remaining % (GSPT1): A ("A" is defined as 0% ≤ substrate protein remaining % ≤ 80%); IC50 (MM.1S): 10 to 50 nM; IC50 (MGC803): 100 to 300 nM; IC50 (Jurkat): 100 to 300 nM

Question: For `Cc1cc(C2=CCN(Cc3ccc4c(c3)CN(N3CCC(=O)NC3=O)C4=O)CC2)cs1` [GT-04873, 1-(5-((4-(5-methylthiophen-3-yl)-3,6-dihydropyridin-1(2H)-yl)methyl)-1-oxoisoindolin-2-yl)dihydropyrimidine-2,4(1H,3H)-dione], which “WEE1 substrate protein remaining %” value (WEE1) is on record?
Answer: The value was “A ("A" is defined as 0% ≤ substrate protein remaining % ≤ 80%)”.

Question: And the “IKZF1 substrate protein remaining %” value (IKZF1)?
Answer: The value was “A ("A" is defined as 0% ≤ substrate protein remaining % ≤ 80%)”.

Question: What about the “IKZF2 substrate protein remaining %” value (IKZF2) of the same compound?
Answer: The value was “B ("B" is defined as 80%< substrate protein remaining %≤ 100%)”.

Question: What about the “IKZF3 substrate protein remaining %” value (IKZF3) of the same compound?
Answer: Its value is “A ("A" is defined as 0% ≤ substrate protein remaining % ≤ 80%)”.

Question: What about the “CK1α substrate protein remaining %” value (CK1α) of the same compound?
Answer: Its value is “B ("B" is defined as 80%< substrate protein remaining %≤ 100%)”.

Question: And the “GSPT1 substrate protein remaining %” value (GSPT1)?
Answer: The value was “A ("A" is defined as 0% ≤ substrate protein remaining % ≤ 80%)”.

Question: And the IC50 (MM.1S)?
Answer: Its IC50 is 50 to 100 nM.

Question: What about the IC50 (MGC803) of the same compound?
Answer: Its IC50 is 100 to 300 nM.

Question: And the IC50 (Jurkat)?
Answer: Its IC50 is 100 to 300 nM.

Question: Which “WEE1 substrate protein remaining %” value (WEE1) does the source give for `O=C1CCN(N2Cc3cc(CN4CCN(C(c5ccccc5)c5ccccc5)CC4)ccc3C2=O)C(=O)N1` [GT-04889, 1-(5-((4-benzhydrylpiperazin-1-yl)methyl)-1-oxoisoindolin-2-yl)dihydropyrimidine-2,4(1H,3H)-dione] here?
Answer: The value was “A ("A" is defined as 0% ≤ substrate protein remaining % ≤ 80%)”.

Question: And the “IKZF1 substrate protein remaining %” value (IKZF1)?
Answer: Its value is “A ("A" is defined as 0% ≤ substrate protein remaining % ≤ 80%)”.

Question: And the “IKZF2 substrate protein remaining %” value (IKZF2)?
Answer: The value was “A ("A" is defined as 0% ≤ substrate protein remaining % ≤ 80%)”.

Question: And the “IKZF3 substrate protein remaining %” value (IKZF3)?
Answer: The value was “A ("A" is defined as 0% ≤ substrate protein remaining % ≤ 80%)”.

Question: What about the “CK1α substrate protein remaining %” value (CK1α) of the same compound?
Answer: The value was “B ("B" is defined as 80%< substrate protein remaining %≤ 100%)”.

Question: What about the “GSPT1 substrate protein remaining %” value (GSPT1) of the same compound?
Answer: The value was “A ("A" is defined as 0% ≤ substrate protein remaining % ≤ 80%)”.

Question: What about the IC50 (MM.1S) of the same compound?
Answer: Its IC50 is 100 to 300 nM.

Question: And the IC50 (MGC803)?
Answer: The IC50 was 300 to 500 nM.

Question: And the IC50 (Jurkat)?
Answer: Its IC50 is 300 to 500 nM.

Question: Which results are given for `O=C1CCN(N2Cc3cc(CN4CCC(N(c5ccccc5)c5ccccc5)CC4)ccc3C2=O)C(=O)N1` [GT-04939, 1-(5-((4-(diphenylamino)piperidin-1-yl)methyl)-1-oxoisoindolin-2-yl)dihydropyrimidine-2,4(1H,3H)-dione]?
Answer: WEE1 substrate protein remaining % (WEE1): A ("A" is defined as 0% ≤ substrate protein remaining % ≤ 80%); IKZF1 substrate protein remaining % (IKZF1): A ("A" is defined as 0% ≤ substrate protein remaining % ≤ 80%); IKZF2 substrate protein remaining % (IKZF2): A ("A" is defined as 0% ≤ substrate protein remaining % ≤ 80%); IKZF3 substrate protein remaining % (IKZF3): A ("A" is defined as 0% ≤ substrate protein remaining % ≤ 80%); CK1α substrate protein remaining % (CK1α): A ("A" is defined as 0% ≤ substrate protein remaining % ≤ 80%); GSPT1 substrate protein remaining % (GSPT1): A ("A" is defined as 0% ≤ substrate protein remaining % ≤ 80%); IC50 (MM.1S): 10 to 50 nM; IC50 (MGC803): 100 to 300 nM; IC50 (Jurkat): 100 to 300 nM

Question: How did the “WEE1 substrate protein remaining %” value (WEE1) turn out when `O=C1CCN(N2Cc3cc(CN4CCC(N(c5ccccc5)c5ccccn5)CC4)ccc3C2=O)C(=O)N1` [GT-04940, 1-(1-oxo-5-((4-(phenyl(pyridin-2-yl)amino)piperidin-1-yl)methyl)isoindolin-2-yl)dihydropyrimidine-2,4(1H,3H)-dione] was run?
Answer: Its value is “A ("A" is defined as 0% ≤ substrate protein remaining % ≤ 80%)”.

Question: And the “IKZF1 substrate protein remaining %” value (IKZF1)?
Answer: Its value is “A ("A" is defined as 0% ≤ substrate protein remaining % ≤ 80%)”.

Question: What about the “IKZF2 substrate protein remaining %” value (IKZF2) of the same compound?
Answer: The value was “A ("A" is defined as 0% ≤ substrate protein remaining % ≤ 80%)”.

Question: And the “IKZF3 substrate protein remaining %” value (IKZF3)?
Answer: Its value is “A ("A" is defined as 0% ≤ substrate protein remaining % ≤ 80%)”.

Question: And the “CK1α substrate protein remaining %” value (CK1α)?
Answer: The value was “A ("A" is defined as 0% ≤ substrate protein remaining % ≤ 80%)”.

Question: And the “GSPT1 substrate protein remaining %” value (GSPT1)?
Answer: The value was “A ("A" is defined as 0% ≤ substrate protein remaining % ≤ 80%)”.

Question: And the IC50 (MM.1S)?
Answer: Its IC50 is 50 to 100 nM.

Question: What about the IC50 (MGC803) of the same compound?
Answer: The IC50 was 100 to 300 nM.

Question: And the IC50 (Jurkat)?
Answer: The IC50 was 100 to 300 nM.

Question: `O=C1CCN(N2Cc3cc(CN4CCC(Nc5ccccc5-c5ccc(Cl)cc5)CC4)ccc3C2=O)C(=O)N1` [GT-04943, 1-(5-((4-((4'-chloro-[1,1'-biphenyl]-2-yl)amino)piperidin-1-yl)methyl)-1-oxoisoindolin-2-yl)dihydropyrimidine-2,4(1H,3H)-dione] was tested. Which “WEE1 substrate protein remaining %” value (WEE1) did it give?
Answer: Its value is “A ("A" is defined as 0% ≤ substrate protein remaining % ≤ 80%)”.

Question: And the “IKZF1 substrate protein remaining %” value (IKZF1)?
Answer: Its value is “A ("A" is defined as 0% ≤ substrate protein remaining % ≤ 80%)”.

Question: And the “IKZF2 substrate protein remaining %” value (IKZF2)?
Answer: The value was “A ("A" is defined as 0% ≤ substrate protein remaining % ≤ 80%)”.

Question: What about the “IKZF3 substrate protein remaining %” value (IKZF3) of the same compound?
Answer: The value was “A ("A" is defined as 0% ≤ substrate protein remaining % ≤ 80%)”.

Question: What about the “CK1α substrate protein remaining %” value (CK1α) of the same compound?
Answer: The value was “B ("B" is defined as 80%< substrate protein remaining %≤ 100%)”.

Question: What about the “GSPT1 substrate protein remaining %” value (GSPT1) of the same compound?
Answer: The value was “A ("A" is defined as 0% ≤ substrate protein remaining % ≤ 80%)”.

Question: What about the IC50 (MM.1S) of the same compound?
Answer: The IC50 was 10 to 50 nM.

Question: What about the IC50 (MGC803) of the same compound?
Answer: Its IC50 is 100 to 300 nM.

Question: And the IC50 (Jurkat)?
Answer: The IC50 was 100 to 300 nM.
